# Reference: patent US20100267561A1, “HERBICIDAL PYRIDAZINONE DERIVATIVES” (priority 2007, published 2010)
# Columns and labels:
# Experiment in all cases: Test B pre-/postemergence plant response
# Assay type in all cases: in vivo
# [1] = system: green foxtail (Setaria viridis); conditions: for Foxtail, Green plant response rating: 8 g ai/ha
# How it was run: (§1)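 Seeds were sown and sprayed preemergence, while plants at 2 to 18 cm (1- to 4-leaf stage) got postemergence sprays. Compounds were formulated in a non-phytotoxic solvent mixture with surfactant. After 13 to 15 days in a greenhouse, injury was rated visually against untreated controls, 0 (no effect) to 100 (complete control).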
# [2] = system: downy bromegrass (Bromus tectorum); conditions: for Bromegrass, Downy plant response rating: 8 g ai/ha
# How it was run: as §1
# [3] = system: blackgrass (Alopecurus myosuroides); conditions: for Blackgrass plant response rating: 8 g ai/ha
# How it was run: as §1
# [4] = system: giant foxtail (Setaria faberii); conditions: for Foxtail, Giant plant response rating: 8 g ai/ha
# How it was run: as §1
# [5] = system: pigweed (Amaranthus retroflexus); conditions: for Pigweed plant response rating: 8 g ai/ha
# How it was run: as §1
# [6] = system: catchweed bedstraw (Galium aparine); conditions: Preemergence
# How it was run: as §1
# [7] = system: goosegrass (Eleusine indica); conditions: for Goosegrass plant response rating: 8 g ai/ha
# How it was run: as §1
# [8] = system: morningglory (Ipomoea coccinea); conditions: for Morningglory plant response rating: 8 g ai/ha
# How it was run: as §1
# wild oat (Avena fatua) = conditions: for Oat, Wild plant response rating: 8 g ai/ha
# How it was run: as §1
# [9] = system: common ragweed (Ambrosia elation); conditions: for Ragweed plant response rating: 8 g ai/ha
# How it was run: as §1
# [10] = system: surinam grass (Brachiaria decumbens); conditions: for Surinam Grass plant response rating: 8 g ai/ha
# How it was run: as §1
# [11] = system: lambsquarters (Chenopodium album); conditions: for Lambsquarters plant response rating: 8 g ai/ha
# How it was run: as §1
# [12] = system: woolly cupgrass (Eriochloa villosa); conditions: for Cupgrass, Woolly plant response rating: 8 g ai/ha
# How it was run: as §1
# corn (Zea mays) = conditions: for Corn plant response rating: 8 g ai/ha
# How it was run: as §1
# [13] = Postemergence, 16 g ai/ha, scale 0 to 100
# [14] = Postemergence, 31 g ai/ha, scale 0 to 100, 0 no effect, 100 complete control
# [15] = Postemergence, 62 g ai/ha, scale 0 to 100
# [16] = Preemergence, 16 g ai/ha, scale 0 to 100 (0 no effect, 100 complete control)
# [17] = Preemergence, 31 g ai/ha, 0 to 100 scale, 0 no effect, 100 complete control
# [18] = Preemergence, 62 g ai/ha, scale 0 to 100
compound,measurement,setting,value
CCc1cc(-c2ccc(Cl)cc2)nn1-c1c(O)cnn(C)c1=O [Compound 21],"Foxtail, Green plant response rating","[1]; postemergence, 0-100 scale",95
same,"Plant response rating, Foxtail, Green",[1]; [13],100
same,"Plant response rating, Foxtail, Green",[1]; [14],100
same,"Plant response rating, Foxtail, Green",[1]; [15],100
same,"Plant response rating, Foxtail, Green",[1]; [16],100
same,"Plant response rating, Foxtail, Green",[1]; [17],100
same,"Plant response rating, Foxtail, Green",[1]; [18],100
same,"Foxtail, Green plant response rating","[1]; Preemergence, scale 0 to 100",100
same,"Bromegrass, Downy plant response rating","[2]; postemergence, 0-100 scale",55
same,"Plant response rating, Bromegrass, Downy",[2]; [13],55
same,"Plant response rating, Bromegrass, Downy",[2]; [14],80
same,"Plant response rating, Bromegrass, Downy",[2]; [15],85
same,"Plant response rating, Bromegrass, Downy",[2]; [16],50
same,"Plant response rating, Bromegrass, Downy",[2]; [17],60
same,"Plant response rating, Bromegrass, Downy",[2]; [18],100
same,"Bromegrass, Downy plant response rating","[2]; Preemergence, scale 0 to 100",0
same,Blackgrass plant response rating,"[3]; postemergence, 0-100 scale",95
same,"Plant response rating, Blackgrass",[3]; [13],95
same,"Plant response rating, Blackgrass",[3]; [14],100
same,"Plant response rating, Blackgrass",[3]; [15],100
same,"Plant response rating, Blackgrass",[3]; [16],100
same,"Plant response rating, Blackgrass",[3]; [17],100
same,"Plant response rating, Blackgrass",[3]; [18],100
same,Blackgrass plant response rating,"[3]; Preemergence, scale 0 to 100",95
same,"Foxtail, Giant plant response rating","[4]; postemergence, 0-100 scale",98
same,"Plant response rating, Foxtail, Giant",[4]; [13],100
same,"Plant response rating, Foxtail, Giant",[4]; [14],100
same,"Plant response rating, Foxtail, Giant",[4]; [15],100
same,"Plant response rating, Foxtail, Giant",[4]; [16],100
same,"Plant response rating, Foxtail, Giant",[4]; [17],100
same,"Plant response rating, Foxtail, Giant",[4]; [18],100
same,"Foxtail, Giant plant response rating","[4]; Preemergence, scale 0 to 100",85
same,Pigweed plant response rating,"[5]; postemergence, 0-100 scale",0
same,"Plant response rating, Pigweed",[5]; [13],0
same,"Plant response rating, Pigweed",[5]; [14],0
same,"Plant response rating, Pigweed",[5]; [15],0
same,"Plant response rating, Pigweed",[5]; [16],0
same,"Plant response rating, Pigweed",[5]; [17],0
same,"Plant response rating, Pigweed",[5]; [18],0
same,Pigweed plant response rating,"[5]; Preemergence, scale 0 to 100",0
same,"Plant response rating, Galium","[6]; 16 g ai/ha, scale 0 to 100 (0 no effect, 100 complete control)",0
same,"Plant response rating, Galium","[6]; 31 g ai/ha, 0 to 100 scale, 0 no effect, 100 complete control",0
same,"Plant response rating, Galium","[6]; 62 g ai/ha, scale 0 to 100",90
same,Galium plant response rating,"[6]; 8 g ai/ha, scale 0 to 100",0
same,Goosegrass plant response rating,"[7]; postemergence, 0-100 scale",65
same,"Plant response rating, Goosegrass",[7]; [13],80
same,"Plant response rating, Goosegrass",[7]; [14],95
same,"Plant response rating, Goosegrass",[7]; [15],100
same,"Plant response rating, Goosegrass",[7]; [16],80
same,"Plant response rating, Goosegrass",[7]; [17],95
same,"Plant response rating, Goosegrass",[7]; [18],100
same,Goosegrass plant response rating,"[7]; Preemergence, scale 0 to 100",10
same,Morningglory plant response rating,"[8]; postemergence, 0-100 scale",0
same,"Plant response rating, Morningglory",[8]; [13],0
same,"Plant response rating, Morningglory",[8]; [14],0
same,"Plant response rating, Morningglory",[8]; [15],0
same,"Plant response rating, Morningglory",[8]; [16],0
same,"Plant response rating, Morningglory",[8]; [17],0
same,"Plant response rating, Morningglory",[8]; [18],0
same,Morningglory plant response rating,"[8]; Preemergence, scale 0 to 100",0
same,"Oat, Wild plant response rating","wild oat (Avena fatua); postemergence, 0-100 scale",98
same,"Plant response rating, Oat, Wild",wild oat (Avena fatua); [13],100
same,"Plant response rating, Oat, Wild",wild oat (Avena fatua); [14],100
same,"Plant response rating, Oat, Wild",wild oat (Avena fatua); [15],100
same,"Plant response rating, Oat, Wild",wild oat (Avena fatua); [16],85
same,"Plant response rating, Oat, Wild",wild oat (Avena fatua); [17],90
same,"Plant response rating, Oat, Wild",wild oat (Avena fatua); [18],95
same,"Oat, Wild plant response rating","wild oat (Avena fatua); Preemergence, scale 0 to 100",65
same,Ragweed plant response rating,"[9]; postemergence, 0-100 scale",0
same,"Plant response rating, Ragweed",[9]; [13],0
same,"Plant response rating, Ragweed",[9]; [14],0
same,"Plant response rating, Ragweed",[9]; [15],0
same,"Plant response rating, Ragweed",[9]; [16],0
same,"Plant response rating, Ragweed",[9]; [17],0
same,"Plant response rating, Ragweed",[9]; [18],0
same,Ragweed plant response rating,"[9]; Preemergence, scale 0 to 100",0
same,Surinam Grass plant response rating,"[10]; postemergence, 0-100 scale",100
same,"Plant response rating, Surinam Grass",[10]; [13],100
same,"Plant response rating, Surinam Grass",[10]; [14],100
same,"Plant response rating, Surinam Grass",[10]; [15],100
same,"Plant response rating, Surinam Grass",[10]; [16],100
same,"Plant response rating, Surinam Grass",[10]; [18],100
same,Surinam Grass plant response rating,"[10]; Preemergence, scale 0 to 100",98
same,Lambsquarters plant response rating,"[11]; postemergence, 0-100 scale",0
same,"Plant response rating, Lambsquarters",[11]; [13],0
same,"Plant response rating, Lambsquarters",[11]; [14],0
same,"Plant response rating, Lambsquarters",[11]; [15],0
same,"Plant response rating, Lambsquarters",[11]; [16],0
same,"Plant response rating, Lambsquarters",[11]; [17],100
same,"Plant response rating, Lambsquarters",[11]; [18],100
same,Lambsquarters plant response rating,"[11]; Preemergence, scale 0 to 100",0
same,"Cupgrass, Woolly plant response rating","[12]; postemergence, 0-100 scale",100
same,"Plant response rating, Cupgrass, Woolly",[12]; [13],100
same,"Plant response rating, Cupgrass, Woolly",[12]; [14],100
same,"Plant response rating, Cupgrass, Woolly",[12]; [15],100
same,"Plant response rating, Cupgrass, Woolly",[12]; [16],100
same,"Plant response rating, Cupgrass, Woolly",[12]; [18],100
same,"Cupgrass, Woolly plant response rating","[12]; Preemergence, scale 0 to 100",60
same,Corn plant response rating,"corn (Zea mays); postemergence, 0-100 scale",50
same,"Plant response rating, Corn",corn (Zea mays); [13],100
same,"Plant response rating, Corn",corn (Zea mays); [14],100
same,"Plant response rating, Corn",corn (Zea mays); [15],100
same,"Plant response rating, Corn",corn (Zea mays); [16],80
same,"Plant response rating, Corn",corn (Zea mays); [17],95
same,"Plant response rating, Corn",corn (Zea mays); [18],98
same,Corn plant response rating,"corn (Zea mays); Preemergence, scale 0 to 100",70
